Measured values published in article PMC3124649 (Journal of medicinal chemistry, 2011).

Legend:
[1] = tested on: HBV replication (extracellular virion HBV DNA); assay: HBV virion; type: cell-based, hepatitis B virus; settings: for activity against HBV (in words): 2.2.15 cells
CYP isozymes = assay: CYP inhibition panel; type: in vitro ADME
anaerobic bacteria [2] = assay: Activity against anaerobes
anaerobic bacteria [3] = settings: cited from earlier work
[4] = cited from earlier work
[5] = cited from earlier work; remark: listed apart in the source
HCV = settings: cited from earlier work
[6] = administered after food; cited from earlier work
[7] = Stability in human blood and plasma; type: in vitro ADME; settings: one hour incubation
Plasma protein binding = type: in vitro ADME; settings: ADME/Tox studies
Dog PK study = type: in vivo
Rat PK study = type: in vivo

SMILES | activity against HBV (in words) [1] | also measured
CSc1cnc(NC(=O)c2ccccc2OC(C)=O)s1 [Compound 44] | inactive | 
O=C(Nc1ncc(Cl)s1)c1ccccc1O [Compound 3, 2-Hydroxybenzoyl-N-(5-chlorothiazol-2-yl) amide] |  | drug-drug interactions (CYP isozymes): nor does it show unfavourable drug-drug interactions; effects against a panel of CYPs (CYP isozymes): no adverse effects; activity against anaerobes (anaerobic bacteria [2]): inactive
COC(=O)c1cnc(NC(=O)c2ccccc2O)s1 [Compound 27] | inactive | 
O=C(Nc1ccc([N+](=O)[O-])cc1)c1ccccc1O [Compound 34] | inactive | 
Cc1cccc(C(=O)Nc2ncc(Cl)s2)c1O [Compound 11] | essentially inactive | 
O=C(Nc1ncc(C(F)(F)F)s1)c1ccccc1O [Compound 28] | slight activity | 
O=C(Nc1ncc([N+](=O)[O-])s1)c1ccccc1O[C@@H]1O[C@H](C(=O)O)[C@@H](O)[C@H](O)[C@H]1O [Compound 58] |  | activity against anaerobic bacteria (anaerobic bacteria [3]): moderate activity; antiviral activity [4]: essentially devoid of antiviral activity
CC(C)c1cnc(NC(=O)c2ccccc2O)s1 [Compound 17] | inactive | 
O=C(Nc1ccc([N+](=O)[O-])cc1Cl)c1cc(Cl)ccc1O [Niclosamide, reference compound] | inactive | aqueous solubility [5]: poor; EC50 ([1]; Hepatitis B virus, read-out: EC50 (VIR)): > 10 µM
CS(=O)(=O)c1csc(NC(=O)c2ccccc2O)n1 [Compound 24] | inactive | inhibition of HCV (HCV): potent inhibitor
CS(=O)(=O)c1cnc(NC(=O)c2ccccc2O)s1 [Compound 25] | inactive | 
CC(=O)Oc1ccccc1C(=O)Nc1ncc([N+](=O)[O-])s1 [Compound 1, nitazoxanide] |  | oral bioavailability [6]: about 50%
CC(=O)Nc1cnc(NC(=O)c2ccccc2O)s1 [Compound 23, 2-Hydroxybenzoyl-N-(5-acetamidothiazol-2-yl)amide] | inactive | 
CC(=O)Oc1ccccc1C(=O)Nc1ccc(Br)cc1 [Compound 32] | useful activity | 
O=C(Nc1ncc(-c2ccc(Cl)cc2)s1)c1ccccc1O [Compound 18] | inactive | 
CC(=O)Oc1ccccc1C(=O)Nc1ccc(Cl)cc1 [Compound 30] | low potency | 
O=C(Nc1ccc(Cl)cc1)c1ccccc1O [Compound 31] | lack of activity | 
N#Cc1cnc(NC(=O)c2ccccc2O)s1 [Compound 26] | slight activity | 
O=C(Nc1nccs1)c1ccccc1O [Compound 16] | complete loss of HBV activity | 
CC(=O)Oc1ccccc1C(=O)Nc1ccc(I)cc1 [Compound 33] | useful activity | 
O=C(Nc1cc(C(F)(F)F)ccc1Cl)c1ccccc1O [Compound 35] | moderate activity | 
Cc1ccc(O)c(C(=O)Nc2ncc(Cl)s2)c1 [Compound 12, 2-Hydroxy-5-methylbenzoyl-N-(5-chlorothiazol-2-yl) amide] |  | stability in human blood and plasma [7]: complete stability; inhibition of CYP isozymes (CYP isozymes; 14 different CYP isozymes): not an inhibitor; protein bound (Plasma protein binding): > 99%; oral absorption (Dog PK study): not orally absorbed; oral absorption (Rat PK study): not orally absorbed
CC(=O)Oc1ccccc1C(=O)Nc1cc(C(F)(F)F)cc(C(F)(F)F)c1 [Compound 36] | moderate activity | 
O=C(Nc1nc(-c2ccccc2)cs1)c1ccccc1O [Compound 19] | modest level of activity | 
Cc1cc([N+](=O)[O-])c(Cl)cc1NC(=O)c1ccccc1O [Compound 37] | good activity | 
